Laboratory results from US20090068113A1, “AMPHIPHILIC SQUARAINE DYES, PROCESS FOR PREPARATION THEREOF AND USE THEREOF” (COUNCIL OF SCIENTIFIC AND INDUSTRIAL RESEARCH, priority 2005, published 2009).

Tests used:
Assay type in all cases: physicochemical
[1] = Absorption, emission and fluorescence quantum yield in aqueous and alcoholic solvents
Description: The absorption and emission maxima, and fluorescence quantum yields of these dyes in aqueous and alcoholic solvents are listed in Table 1. The long wavelength absorption and emission maxima and good fluorescence quantum yields in aqueous media make these dyes ideal candidates for application as fluorescence probes.

[2] = Photophysical properties and fluorescence lifetimes in the presence of anionic micelle SDS
Description: (§1) Study of the stability and photophysical properties of a photosensitizer under physiological conditions is important during its evaluation for various in vitro and in vivo applications. Particularly, the influence of membrane mimics like cetyltrimethylammonium bromide and carrier systems like β-cyclodextrin will provide information on the sensitizer behaviour under physiological conditions. Moreover, such studies are also useful to clarify points such as whether a particular dye forms aggregates or not and whether it generates cytotoxic agents or not in such environments. These media are unique in their properties, since β-CD forms inclusion complexes with the guest molecules, while others form micellar structures thereby provide in them both the hydrophobic and hydrophilic environment.
(§2) FIGS. 3, 4, and 5 show the emission spectra of dye of the general formula 1, wherein, R^1=—(CH2—CH2—O)n—CH3, n=4 and R^2=—CH3 in the presence of cationic micelle CTAB, anionic micelle SDS and neutral micelle Triton X-100, respectively. As the concentration of micelles increases, the fluorescence intensity of the dye increases showing an effective interaction between the micelles and the dye. To have a better understanding of the effect of micellar media we have analyzed the picosecond time-resolved fluorescence lifetimes of dyes of the general formula 1. […] Tables 2, 3 and 4
(§3) lists the absorption and emission maxima, fluorescence quantum yield and lifetimes of dyes of the general formula 1 wherein, R^1=—(CH2—CH2—O)n—CH3, n=4 and R^2=—CH3, general formula 2, wherein R^1, R^2=—(CH2—CH2—O)n—CH3, n=4 and general formula 3, wherein R^1=—(CH2)n—CO2X, n=3, X=H, and R^2=—CH3, in the absence and presence of cationic micelle CTAB, anionic micelle SDS and neutral micelle Triton X-100.

[3] = Photophysical properties and picosecond time-resolved fluorescence lifetimes in the presence of cationic micelle CTAB; settings: for Abs λmax / Ems λmax / Φf: In the presence of CTAB
Description: as §1, §2, §3

[4] = Photophysical properties and fluorescence lifetimes in the presence of β-CD; settings: in the absence of β-CD
[5] = as above; settings: for Abs λmax / Ems λmax / Φf: In the presence of β-CD
Description: as §1
Table 5 summarises the absorption and emission maxima, fluorescence quantum yields and lifetimes of squaraine dyes of the general formula 1 in the presence of β-CD.

[6] = Summary of photophysical properties in the presence of membrane mimics and drug carriers; settings: presence of membrane mimics and drug carriers versus aqueous media
Description: The main advantages of these systems include: • 1. Squaraines dyes represented by formulae 1, 2 and 3 are novel and pure single substances. • 2. Their synthetic methodology is very economical. • 3. […] They can be used for photodynamic applications such as sterilization of fluids etc. • 7. The squaraine-based dyes can be used as near infrared fluorescent probes for protein labeling. • 8. The squaraine dyes of the general formula 1 can be used as near infrared fluorescent labels in immunoassays. • 9. They can be used for the detection of biologically important metal ions under physiological conditions. • 10. These novel dyes can be used as near-infrared fluorescence sensors in biological, biochemical and industrial applications.

[7] = Photophysical properties and fluorescence lifetimes in the presence of neutral micelle Triton X-100
Description: as §1, §2, §3

[8] = In the presence of Triton X-100

COCCOCCOCCOCCN(C)c1ccc(C2=C([O-])C(=C3C=CC(=[N+](C)CCOCCOCCOCCOC)C=C3)C2=O)cc1 [Formula 1]
Φf (fluorescence quantum yield) ([1]; 10% v/v Ethanol/water): 0.018
λmax, nm abs ([1]; 10% v/v Ethanol/water): 645 nm
λmax, nm ems ([1]; 10% v/v Ethanol/water): 674 nm
Φf (fluorescence quantum yield) ([1]; Ethanol): 0.19
λmax, nm abs ([1]; Ethanol): 637 nm
λmax, nm ems ([1]; Ethanol): 660 nm
Φf (fluorescence quantum yield) ([1]; Water): 0.013
λmax, nm abs ([1]; Water): 644 nm
λmax, nm ems ([1]; Water): 671 nm
Abs λmax ([2]; In the presence of SDS): 640 nm
Ems λmax ([2]; In the presence of SDS): 663 nm
Lifetimes ([2]; In the presence of SDS): 590 ps
Φf ([2]; In the presence of SDS): 0.15
fluorescence intensity as the concentration of micelles increases ([2]; SDS 0 to 21 mM, excitation 600 nm): increases
fluorescence intensity as the concentration of micelles increases ([3]; CTAB 0 to 129 mM, excitation 600 nm): increases
Abs λmax [3]: 642 nm
Ems λmax [3]: 663 nm
Φf [3]: 0.12
form of fluorescence decay [4]: mono exponential decay
Abs λmax [5]: 644 nm
Ems λmax [5]: 663 nm
Φf [5]: 0.10
form of fluorescence decay ([5]; in the presence of β-CD): Biexponential decay
increase of emission quantum yield [6]: ~10 fold
Abs λmax [7, 8]: 645 nm
Ems λmax [7, 8]: 669 nm
Φf [7, 8]: 0.12
fluorescence intensity as the concentration of micelles increases ([7]; Triton X-100 0 to 118 mM, excitation 600 nm): increases

COCCOCCOCCOCCN(CCOCCOCCOCCOC)c1ccc(C2=C([O-])C(=C3C=CC(=[N+](CCOCCOCCOCCOC)CCOCCOCCOCCOC)C=C3)C2=O)cc1 [Formula 2]
Φf (fluorescence quantum yield) ([1]; 10% v/v Ethanol/water): 0.026
λmax, nm abs ([1]; 10% v/v Ethanol/water): 646 nm
λmax, nm ems ([1]; 10% v/v Ethanol/water): 675 nm
Φf (fluorescence quantum yield) ([1]; Ethanol): 0.21
λmax, nm abs ([1]; Ethanol): 638 nm
λmax, nm ems ([1]; Ethanol): 662 nm
Φf (fluorescence quantum yield) ([1]; Water): 0.021
λmax, nm abs ([1]; Water): 646 nm
λmax, nm ems ([1]; Water): 676 nm
Abs λmax ([2]; In the presence of SDS): 643 nm
Ems λmax ([2]; In the presence of SDS): 668 nm
Φf ([2]; In the presence of SDS): 0.16
Abs λmax [3]: 644 nm
Ems λmax [3]: 667 nm
Φf [3]: 0.096
Abs λmax [5]: 645 nm
Ems λmax [5]: 668 nm
Φf [5]: 0.07
increase of emission quantum yield [6]: ~10 fold
Abs λmax [7, 8]: 646 nm
Ems λmax [7, 8]: 671 nm
Relative contribution of lifetime component [7, 8]: (7%)
Φf [7, 8]: 0.14

CN(CCCC(=O)O)c1ccc(C2=C([O-])C(=C3C=CC(=[N+](C)CCCC(=O)O)C=C3)C2=O)cc1 [Formula 3]
Φf (fluorescence quantum yield) ([1]; 10% v/v Ethanol/water): 0.015
λmax, nm abs ([1]; 10% v/v Ethanol/water): 647 nm
λmax, nm ems ([1]; 10% v/v Ethanol/water): 673 nm
Φf (fluorescence quantum yield) ([1]; Ethanol): 0.18
λmax, nm abs ([1]; Ethanol): 636 nm
λmax, nm ems ([1]; Ethanol): 662 nm
Φf (fluorescence quantum yield) ([1]; Water): 0.007
λmax, nm abs ([1]; Water): 645 nm
λmax, nm ems ([1]; Water): 673 nm
Abs λmax [3]: 644 nm
Ems λmax [3]: 667 nm
Φf [3]: 0.14
Abs λmax [5]: 649 nm
Ems λmax [5]: 666 nm
Φf [5]: 0.19
increase of emission quantum yield [6]: ~10 fold
Abs λmax [7, 8]: 649 nm
Ems λmax [7, 8]: 672 nm
Φf [7, 8]: 0.12
